Results from ChEMBL document CHEMBL1201862, “PubChem BioAssay data set” (2004).
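A five-concentration, 48-hour dose response in 96-well plates underlies each endpoint, interpolated linearly between surrounding concentrations. GI50 marks 50% less growth.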 Calls of active or inactive are those of the source. No stated cut-off is given here; in the data, active = GI50 up to about 1.1 µM and inactive = higher.

How the values were obtained:
Experiment in all cases: NCI anticancer screen, dose series, 48 h
[1] = tested on: OVCAR-3
[2] = tested on: SK-OV-3
[3] = tested on: K562
[4] = tested on: UO-31
[5] = tested on: SK-MEL-2
[6] = tested on: OVCAR-8
[7] = tested on: IGROV-1
[8] = tested on: UACC-257
[9] = tested on: MOLT-4
[10] = tested on: SW-620
[11] = tested on: NCI-H226
[12] = tested on: NCI-H23
[13] = tested on: ACHN
[14] = tested on: SF-295
[15] = tested on: Malme-3M
[16] = tested on: SK-MEL-5
[17] = tested on: RXF 393
[18] = tested on: U-251
[19] = tested on: EKVX
[20] = tested on: TK-10

SMILES | GI50 [1] | GI50 [2] | GI50 [3] | GI50 [4] | GI50 [5] | GI50 [6] | GI50 [7] | GI50 [8] | GI50 [9] | GI50 [10] | GI50 [11] | GI50 [12] | GI50 [13] | GI50 [14] | GI50 [15] | GI50 [16] | GI50 [17] | GI50 [18] | GI50 [19] | GI50 [20]
CN(C)C(=S)/N=c1\ss/c(=N\S(=O)(=O)c2ccccc2)n1-c1ccccc1 | 6.4 µM (inactive) | 89.7 µM (inactive) | 0.953 µM (active) | 22 µM (inactive) | 11.5 µM (inactive) | 23.7 µM (inactive) | 38 µM (inactive) | 16.9 µM (inactive) | 5.35 µM (inactive) | 9.95 µM (inactive) | 0.458 µM (active) | 16.1 µM (inactive) | 24.2 µM (inactive) | 20.3 µM (inactive) | 30.1 µM (inactive) | 0.0653 µM (active) | 57.5 µM (inactive) | 27 µM (inactive) | 59.6 µM (inactive) | 40.1 µM (inactive)
S=c1nc(Nc2ccc(Br)cc2)c2c3c(sc2[nH]1)CN(N1CCc2c(sc4[nH]c(=S)nc(Nc5ccc(Br)cc5)c24)C1)CC3 | 25.1 µM (inactive) | > 50 µM (inactive) | 11.1 µM (inactive) | 20.1 µM (inactive) | 14.9 µM (inactive) | > 50 µM (inactive) | 26.2 µM (inactive) | 28.6 µM (inactive) | 12.8 µM (inactive) | 16.4 µM (inactive) | 20.8 µM (inactive) | 24 µM (inactive) | 21.1 µM (inactive) | 19.1 µM (inactive) | 44.1 µM (inactive) | 12 µM (inactive) | 10.2 µM (inactive) | 9.42 µM (inactive) | 35.2 µM (inactive) | > 50 µM (inactive)
COc1ccc(C2C(N)=NCC2c2ccccn2)cc1 (stereo not given) | > 100 µM (inactive) | > 100 µM (inactive) | > 100 µM (inactive) | > 100 µM (inactive) | > 100 µM (inactive) | > 100 µM (inactive) | > 100 µM (inactive) | > 100 µM (inactive) | > 100 µM (inactive) | > 100 µM (inactive) | > 100 µM (inactive) | > 100 µM (inactive) | > 100 µM (inactive) | > 100 µM (inactive) | > 100 µM (inactive) | > 100 µM (inactive) | > 100 µM (inactive) | > 100 µM (inactive) | > 100 µM (inactive) | > 100 µM (inactive)
Cc1cc(C)c2c(n1)S(=O)(=O)N(CCCN1CCN(c3cccc(C(F)(F)F)c3)CC1)C(C(=O)c1ccccc1)=C2O | 4.18 µM (inactive) | 20 µM (inactive) | 3.69 µM (inactive) | 5.42 µM (inactive) | 17.3 µM (inactive) | 5.66 µM (inactive) | 5.66 µM (inactive) | 5.66 µM (inactive) | 2.67 µM (inactive) | 4.13 µM (inactive) | 1.03 µM (active) | 5.06 µM (inactive) | 9.04 µM (inactive) | 4.11 µM (inactive) | 18.4 µM (inactive) | 2.93 µM (inactive) | 5.73 µM (inactive) | 5.4 µM (inactive) | 4 µM (inactive) | 10.5 µM (inactive)
CC1=NN(C(=O)c2ccc(Cl)cc2)C(=O)C1/N=N/c1ccc(S(=O)(=O)Nc2ncccn2)cc1 (stereo not given) | > 100 µM (inactive) | > 100 µM (inactive) | > 100 µM (inactive) | > 100 µM (inactive) | > 100 µM (inactive) | > 100 µM (inactive) | > 100 µM (inactive) | > 100 µM (inactive) | > 100 µM (inactive) | > 100 µM (inactive) | > 100 µM (inactive) | > 100 µM (inactive) | > 100 µM (inactive) | > 100 µM (inactive) | > 100 µM (inactive) | > 100 µM (inactive) | > 100 µM (inactive) | > 100 µM (inactive) | > 100 µM (inactive) | > 100 µM (inactive)
